Measured values: EP0520722B1, “Therapeutic preparations containing quinazoline derivatives” (ZENECA LIMITED, priority 1991, dated 1992)
Counter-ions that a name gives are not always drawn.

Columns and labels:
[1] = test system: human naso-pharyngeal cell line KB; test: Test (b): in vitro inhibition of EGF-stimulated growth of KB cells (MTT); format: cell-based; conditions: 72 h, EGF (10 ng/ml), incubation for 3 days
Method: (b) An in vitro assay which determines the ability of a test compound to inhibit the growth of the human naso-pharyngeal cell line KB.
KB cells were seeded into wells at a density of 1 x 10 - 1.5 x 10^4 cells per well and grown for 24 hours in DMEM supplemented with 5% FCS (charcoal-stripped). Cell growth was determined after incubation for 3 days by the extent of metabolism of MTT tetrazolium dye to furnish a bluish colour. Cell growth was then determined in the presence of EGF (10 ng/ml) or in the presence of EGF (10 ng/ml) and a test compound at a range of concentrations. An IC50 value could then be calculated.

receptor tyrosine kinase = target: T1, receptor tyrosine kinase (Homo sapiens, UniProt P00533); test: Test (a): in vitro receptor tyrosine kinase inhibition assay (EGF-stimulated peptide phosphorylation, [γ-32P]ATP); format: biochemical; conditions: enzyme partially purified from A-431 cells (human vulval carcinoma); in presence of EGF; 25°C for 10 minutes
T1 construct: The supernatant, containing solubilised receptor tyrosine kinase, was stored in liquid nitrogen; endogenous in cells; host or cells: A-431 cells (human vulval carcinoma); detergent-solubilised membrane fraction
T1 sequence (P00533 25-1210): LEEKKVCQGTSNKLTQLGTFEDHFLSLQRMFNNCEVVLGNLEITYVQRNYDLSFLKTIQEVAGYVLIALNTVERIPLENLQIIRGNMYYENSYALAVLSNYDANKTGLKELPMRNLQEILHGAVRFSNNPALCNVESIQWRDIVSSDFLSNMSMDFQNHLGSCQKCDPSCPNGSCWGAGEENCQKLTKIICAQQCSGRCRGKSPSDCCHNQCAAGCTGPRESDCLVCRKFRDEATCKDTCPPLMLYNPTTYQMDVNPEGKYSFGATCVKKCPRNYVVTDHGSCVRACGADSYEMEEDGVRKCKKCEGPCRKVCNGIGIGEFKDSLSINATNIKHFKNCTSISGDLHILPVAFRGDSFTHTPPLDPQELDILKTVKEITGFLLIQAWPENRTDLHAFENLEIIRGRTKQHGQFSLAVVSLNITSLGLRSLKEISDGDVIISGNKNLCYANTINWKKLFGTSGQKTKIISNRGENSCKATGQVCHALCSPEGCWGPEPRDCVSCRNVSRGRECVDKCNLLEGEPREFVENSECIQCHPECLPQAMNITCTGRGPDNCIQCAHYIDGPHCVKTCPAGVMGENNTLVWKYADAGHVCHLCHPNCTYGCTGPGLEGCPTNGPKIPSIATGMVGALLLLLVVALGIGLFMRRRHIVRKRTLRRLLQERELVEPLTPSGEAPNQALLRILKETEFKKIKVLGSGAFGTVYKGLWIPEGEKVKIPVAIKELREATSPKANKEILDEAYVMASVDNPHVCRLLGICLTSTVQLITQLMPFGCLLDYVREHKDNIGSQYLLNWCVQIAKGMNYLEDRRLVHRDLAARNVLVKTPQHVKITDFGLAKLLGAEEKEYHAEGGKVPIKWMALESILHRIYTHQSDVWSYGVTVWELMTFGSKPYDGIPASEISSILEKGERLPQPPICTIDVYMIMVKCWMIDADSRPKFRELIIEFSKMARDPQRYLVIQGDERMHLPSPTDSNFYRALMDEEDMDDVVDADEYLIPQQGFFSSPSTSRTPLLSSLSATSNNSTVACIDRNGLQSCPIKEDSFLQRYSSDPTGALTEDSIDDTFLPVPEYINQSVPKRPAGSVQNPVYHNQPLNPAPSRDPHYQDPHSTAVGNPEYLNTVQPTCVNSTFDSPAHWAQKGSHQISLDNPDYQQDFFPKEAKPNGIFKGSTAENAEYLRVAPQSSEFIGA
Method: (a) An in vitro assay which determines the ability of a test compound to inhibit the enzyme receptor tyrosine kinase. Receptor tyrosine kinase was obtained in partially purified form from A-431 cells (derived from human vulval carcinoma) by procedures related to those described by Carpenter et al., J. Biol. Chem., 1979, 254, 4884, Cohen et al., J. Biol. Chem., 1982, 257, 1523 and by Braun et al., J. Biol. Chem., 1984, 259, 2051.
A-431 cells were grown to confluence using Dulbecco′s modified Eagle′s medium (DMEM) containing 5% fetal calf serum (FCS). The obtained cells were homogenised in a hypotonic borate/EDTA buffer at pH 10.1. The homogenate was centrifuged at 400 g for 10 minutes at 0-4°C. The supernatant was centrifuged at 25,000 g for 30 minutes at 0-4°C. The pelleted material was suspended in 30 mM Hepes buffer at pH 7.4 containing 5% glycerol, 4 mM benzamidine and 1% Triton X-100, stirred for 1 hour at 0-4°C, and recentrifuged at 100,000 g for 1 hour at 0-4°C. The supernatant, containing solubilised receptor tyrosine kinase, was stored in liquid nitrogen.
For test purposes 40 µl of the enzyme solution so obtained was added to a mixture of 400 µl of a mixture of 150 mM Hepes buffer at pH 7.4, 500 µM sodium orthovanadate, 0.1% Triton X-100, 10% glycerol, 200 µl water, 80 µl of 25 mM DTT and 80µl of a mixture of 12.5 mM manganese chloride, 125 mM magnesium chloride and distilled water. There was thus obtained the test enzyme solution.
Each test compound was dissolved in dimethylsulphoxide (DMSO) to give a 50 mM solution which was diluted with 40 mM Hepes buffer containing 0.1% Triton X-100, 10% glycerol and 10% DMSO to give a 500 µM solution. Equal volumes of this solution and a solution of epidermal growth factor (EGF; 20 µg/ml) were mixed.
[γ-^32P]ATP (3000 Ci/mM, 250 µCi) was diluted to a volume of 2 ml by the addition of a solution of ATP (100 µM) in distilled water. An equal volume of a 4 mg/ml solution of the peptide Arg-Arg-Leu-Ile-Glu-Asp-Ala-Glu-Tyr-Ala-Ala-Arg-Gly in a mixture of 40 mM Hepes buffer at pH 7.4, 0.1% Triton X-100 and 10% glycerol was added.
The test compound/EGF mixture solution (5 µl) was added to the test enzyme solution (10 µl) and the mixture was incubated at 0-4°C for 30 minutes. The ATP/peptide mixture (10 µl) was added and the mixture was incubated at 25°C for 10 minutes. […] Radioactivity present in the filter paper was measured using a liquid scintillation counter (Sequence A). […]
Receptor tyrosine kinase inhibition was calculated as follows:- % Inhibition =[…] [formula]
The extent of inhibition was then determined at a range of concentrations of test compound to give an IC50 value.

SMILES | IC50 [1] | IC50 (receptor tyrosine kinase)
Brc1cccc(Nc2ncnc3ccccc23)c1 [4-(3'-bromoanilino)quinazoline, 4-(3'-bromoanilino)quinazoline hydrochloride] | 0.78 µM | 0.02 µM
Clc1cccc(Nc2ncnc3ccccc23)c1 [4-(3'-chloroanilino)quinazoline, 4-(3′-chloroanilino)quinazoline hydrochloride] | ~5 µM | 0.04 µM
Cc1cccc(Nc2ncnc3ccccc23)c1 [4-(3'-methylanilino)-quinazoline] | ~5 µM | 0.18 µM
Clc1cccc(Nc2ncnc3cc(Cl)ccc23)c1 [7-chloro-4-(3'-chloroanilino)quinazoline] | 1 µM | 0.02 µM
